Test results from ChEMBL document CHEMBL2203257 (Bioorg Med Chem Lett, 2012).

Assays:
[1] = target: Dual specificity protein kinase CLK1 (Homo sapiens, UniProt P49759); assay: Inhibition of CLK1
[2] = target: Eukaryotic translation initiation factor 2-alpha kinase 1 (Homo sapiens, UniProt Q9BQI3); assay: Inhibition of EIF2AK1
[3] = target: Tyrosine-protein kinase Fer (Homo sapiens, UniProt P16591); assay: Inhibition of FER
[4] = target: Tyrosine-protein kinase Fgr (Homo sapiens, UniProt P09769); assay: Inhibition of FGR
[5] = target: Tyrosine-protein kinase Fyn (Homo sapiens, UniProt P06241); assay: Inhibition of FYN
[6] = target: Cyclin-G-associated kinase (Homo sapiens, UniProt O14976); assay: Inhibition of GAK
[7] = target: Interleukin-1 receptor-associated kinase 1 (Homo sapiens, UniProt P51617); assay: Inhibition of IRAK1
[8] = target: Mitogen-activated protein kinase kinase kinase 11 (Homo sapiens, UniProt Q16584); assay: Inhibition of MAP3K11
[9] = target: Mitogen-activated protein kinase kinase kinase 4 (Homo sapiens, UniProt Q9Y6R4); assay: Inhibition of MAP3K4
[10] = target: Mitogen-activated protein kinase kinase kinase 5 (Homo sapiens, UniProt Q99683); assay: Inhibition of MAP3K5
[11] = target: Serine/threonine-protein kinase MARK2 (Homo sapiens, UniProt Q7KZI7); assay: Inhibition of MARK2
[12] = target: Hepatocyte growth factor receptor (Homo sapiens, UniProt P08581); assay: Inhibition of MET
[13] = target: Serine/threonine-protein kinase Nek2 (Homo sapiens, UniProt P51955); assay: Inhibition of NEK2
[14] = target: Serine/threonine-protein kinase NLK (Homo sapiens, UniProt Q9UBE8); assay: Inhibition of NLK
[15] = target: Phosphorylase b kinase gamma catalytic chain, liver/testis isoform (Homo sapiens, UniProt P15735); assay: Inhibition of PHKG2
[16] = target: Phosphoinositide 3-kinase regulatory subunit 4 (Homo sapiens, UniProt Q99570); assay: Inhibition of PIK3R4
[17] = target: Phosphatidylinositol 4-kinase alpha (Homo sapiens, UniProt P42356); assay: Inhibition of PIK4Ca
Phosphatidylinositol 4-kinase alpha, sequence (P42356 whole entry): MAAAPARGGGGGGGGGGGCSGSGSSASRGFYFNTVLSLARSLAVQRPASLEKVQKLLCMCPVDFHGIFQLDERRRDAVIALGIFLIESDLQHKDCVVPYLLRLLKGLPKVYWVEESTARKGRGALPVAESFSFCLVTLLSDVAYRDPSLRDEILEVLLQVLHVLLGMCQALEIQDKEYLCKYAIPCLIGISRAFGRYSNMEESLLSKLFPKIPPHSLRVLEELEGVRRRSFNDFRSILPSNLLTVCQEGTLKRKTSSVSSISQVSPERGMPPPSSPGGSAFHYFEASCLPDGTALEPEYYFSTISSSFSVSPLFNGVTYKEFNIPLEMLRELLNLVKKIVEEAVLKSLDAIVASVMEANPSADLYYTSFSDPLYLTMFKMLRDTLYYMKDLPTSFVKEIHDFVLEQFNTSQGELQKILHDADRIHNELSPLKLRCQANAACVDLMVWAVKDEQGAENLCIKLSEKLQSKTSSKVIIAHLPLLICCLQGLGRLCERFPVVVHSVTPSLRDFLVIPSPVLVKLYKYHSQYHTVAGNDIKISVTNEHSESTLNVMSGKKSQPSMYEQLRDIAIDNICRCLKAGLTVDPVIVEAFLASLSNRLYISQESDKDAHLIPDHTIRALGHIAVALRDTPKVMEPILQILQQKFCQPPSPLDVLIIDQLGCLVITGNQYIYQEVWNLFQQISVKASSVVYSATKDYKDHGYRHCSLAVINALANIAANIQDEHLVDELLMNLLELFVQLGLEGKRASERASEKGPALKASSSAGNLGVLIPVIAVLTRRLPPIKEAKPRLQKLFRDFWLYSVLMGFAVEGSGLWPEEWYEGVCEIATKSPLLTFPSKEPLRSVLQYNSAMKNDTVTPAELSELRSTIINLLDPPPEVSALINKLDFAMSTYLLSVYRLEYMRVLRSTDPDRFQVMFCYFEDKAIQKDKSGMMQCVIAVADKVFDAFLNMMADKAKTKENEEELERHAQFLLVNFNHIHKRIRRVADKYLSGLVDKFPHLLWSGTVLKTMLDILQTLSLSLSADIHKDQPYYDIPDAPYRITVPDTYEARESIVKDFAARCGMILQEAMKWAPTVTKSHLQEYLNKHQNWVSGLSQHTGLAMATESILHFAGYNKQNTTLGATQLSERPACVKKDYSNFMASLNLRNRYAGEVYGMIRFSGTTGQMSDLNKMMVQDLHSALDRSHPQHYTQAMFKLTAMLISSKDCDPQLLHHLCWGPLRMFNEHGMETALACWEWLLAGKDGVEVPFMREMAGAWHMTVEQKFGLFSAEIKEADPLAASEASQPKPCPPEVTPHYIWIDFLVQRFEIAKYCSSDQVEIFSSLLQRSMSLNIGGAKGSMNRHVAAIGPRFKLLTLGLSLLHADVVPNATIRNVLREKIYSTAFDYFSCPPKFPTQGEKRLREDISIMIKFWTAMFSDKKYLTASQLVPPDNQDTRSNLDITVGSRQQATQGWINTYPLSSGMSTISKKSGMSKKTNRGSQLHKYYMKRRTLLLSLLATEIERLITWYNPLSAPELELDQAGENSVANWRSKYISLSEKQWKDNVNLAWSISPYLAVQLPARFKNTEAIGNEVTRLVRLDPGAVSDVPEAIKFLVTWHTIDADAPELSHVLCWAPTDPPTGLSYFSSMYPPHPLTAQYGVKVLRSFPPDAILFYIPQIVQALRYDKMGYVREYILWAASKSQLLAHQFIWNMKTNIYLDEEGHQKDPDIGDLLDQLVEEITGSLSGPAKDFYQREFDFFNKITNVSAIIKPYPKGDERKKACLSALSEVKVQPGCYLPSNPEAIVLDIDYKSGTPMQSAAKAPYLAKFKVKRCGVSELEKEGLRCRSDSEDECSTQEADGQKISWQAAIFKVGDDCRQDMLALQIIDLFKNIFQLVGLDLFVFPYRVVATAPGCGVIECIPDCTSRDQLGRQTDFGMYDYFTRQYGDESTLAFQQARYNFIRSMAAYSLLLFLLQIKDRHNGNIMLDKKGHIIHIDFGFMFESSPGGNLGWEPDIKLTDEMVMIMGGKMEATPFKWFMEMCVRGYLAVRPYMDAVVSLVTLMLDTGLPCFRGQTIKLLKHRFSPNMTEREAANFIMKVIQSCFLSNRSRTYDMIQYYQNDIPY

[18] = target: Phosphatidylinositol 5-phosphate 4-kinase type-2 gamma (Homo sapiens, UniProt Q8TBX8); assay: Inhibition of PIP4K2C
[19] = target: Protein kinase C beta type (Homo sapiens, UniProt P05771); assay: Inhibition of PRKCB
[20] = target: Protein kinase C delta type (Homo sapiens, UniProt Q05655); assay: Inhibition of PRKCD
[21] = target: Ribosomal protein S6 kinase alpha-4 (Homo sapiens, UniProt O75676); assay: Inhibition of RPS6KA4
[22] = target: Ribosomal protein S6 kinase alpha-5 (Homo sapiens, UniProt O75582); assay: Inhibition of RPS6KA5
Ribosomal protein S6 kinase alpha-5, sequence (O75582 whole entry): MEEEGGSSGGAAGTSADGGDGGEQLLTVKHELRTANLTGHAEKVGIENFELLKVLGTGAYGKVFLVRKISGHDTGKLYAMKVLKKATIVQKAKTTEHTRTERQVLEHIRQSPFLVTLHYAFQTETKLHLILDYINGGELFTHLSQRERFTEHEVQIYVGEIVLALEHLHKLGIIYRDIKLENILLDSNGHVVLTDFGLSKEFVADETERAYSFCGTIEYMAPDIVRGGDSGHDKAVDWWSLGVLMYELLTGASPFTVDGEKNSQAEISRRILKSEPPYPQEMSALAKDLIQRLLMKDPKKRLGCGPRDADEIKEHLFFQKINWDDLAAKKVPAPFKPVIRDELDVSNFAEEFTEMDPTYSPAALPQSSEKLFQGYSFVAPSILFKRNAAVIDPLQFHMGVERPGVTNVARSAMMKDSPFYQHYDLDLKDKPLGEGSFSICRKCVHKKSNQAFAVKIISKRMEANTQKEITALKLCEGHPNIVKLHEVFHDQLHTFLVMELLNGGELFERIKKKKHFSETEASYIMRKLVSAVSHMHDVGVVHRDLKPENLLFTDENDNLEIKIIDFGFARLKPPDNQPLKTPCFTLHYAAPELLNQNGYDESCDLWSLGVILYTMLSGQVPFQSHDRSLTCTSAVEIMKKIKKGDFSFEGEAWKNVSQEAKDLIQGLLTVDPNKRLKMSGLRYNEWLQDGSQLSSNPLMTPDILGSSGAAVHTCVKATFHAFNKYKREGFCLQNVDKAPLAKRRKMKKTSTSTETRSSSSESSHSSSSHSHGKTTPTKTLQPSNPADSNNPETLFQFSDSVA

[23] = target: Serine/threonine-protein kinase 3 (Homo sapiens, UniProt Q13188); assay: Inhibition of STK3
[24] = target: Tyrosine-protein kinase SYK (Homo sapiens, UniProt P43405); assay: Inhibition of SYK
[25] = target: Tyrosine-protein kinase Tec (Homo sapiens, UniProt P42680); assay: Inhibition of TEC
Tyrosine-protein kinase Tec, sequence (P42680 whole entry): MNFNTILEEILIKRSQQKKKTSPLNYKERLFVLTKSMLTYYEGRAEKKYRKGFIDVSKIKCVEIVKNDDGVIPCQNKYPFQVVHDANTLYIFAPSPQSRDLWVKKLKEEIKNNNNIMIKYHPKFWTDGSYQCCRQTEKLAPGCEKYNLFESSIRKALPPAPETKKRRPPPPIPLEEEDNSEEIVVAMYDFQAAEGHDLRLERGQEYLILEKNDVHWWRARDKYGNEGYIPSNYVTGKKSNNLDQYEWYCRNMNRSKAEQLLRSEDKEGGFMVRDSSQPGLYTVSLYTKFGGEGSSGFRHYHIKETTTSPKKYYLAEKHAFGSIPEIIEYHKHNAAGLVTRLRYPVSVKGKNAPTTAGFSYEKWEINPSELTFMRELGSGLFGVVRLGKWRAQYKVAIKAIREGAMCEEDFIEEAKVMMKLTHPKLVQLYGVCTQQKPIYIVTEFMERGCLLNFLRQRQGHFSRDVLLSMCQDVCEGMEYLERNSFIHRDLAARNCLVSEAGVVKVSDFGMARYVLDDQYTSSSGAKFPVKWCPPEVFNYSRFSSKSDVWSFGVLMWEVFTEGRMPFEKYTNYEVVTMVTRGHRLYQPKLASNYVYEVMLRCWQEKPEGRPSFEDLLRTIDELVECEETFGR

[26] = target: Dual specificity testis-specific protein kinase 2 (Homo sapiens, UniProt Q96S53); assay: Inhibition of TESK2
[27] = target: Non-receptor tyrosine-protein kinase TNK1 (Homo sapiens, UniProt Q13470); assay: Inhibition of TNK1
[28] = target: Mitogen-activated protein kinase kinase kinase 20 (Homo sapiens, UniProt Q9NYL2); assay: Inhibition of ZAK
[29] = target: Phosphatidylinositol 4,5-bisphosphate 3-kinase catalytic subunit gamma isoform (Homo sapiens, UniProt P48736); assay: Inhibition of PI3Kgamma by kinobeads assay
[30] = Half life in rat […] at 5 mg/kg, po; 1 mg/kg, iv; format: ADME, organism-based
[31] = Cmax in rat […] at 5 mg/kg, po; 1 mg/kg, iv; format: ADME, organism-based
[32] = Oral bioavailability in cynomolgus monkey; format: ADME, organism-based, Macaca fascicularis; conditions: in vivo
[33] = target: Cytochrome P450 2C19 (Homo sapiens, UniProt P33261); assay: Inhibition of CYP2C19 at >20 uM; format: ADME
[34] = system: Mus musculus; assay: Antiarthritic activity against collagen-induced arthritis mouse model assessed as mean clinical arthritis score with AUC calculation in at 10 mg/kg, po BID for 14 days; format: functional
[35] = system: Mus musculus; assay: Antiarthritic activity against collagen-induced arthritis mouse model assessed as mean clinical arthritis score with AUC calculation in at 0.01 mg/kg, po BID for 14 days; format: functional
[36] = target: Serine/threonine-protein kinase B-raf (Homo sapiens, UniProt P15056); assay: Inhibition of BRAF
[37] = target: Bromodomain-containing protein 4 (Homo sapiens, UniProt O60885); assay: Inhibition of BRD4
[38] = target: Atypical kinase COQ8A, mitochondrial (Homo sapiens, UniProt Q8NI60); assay: Inhibition of CABC1

Eukaryotic translation initiation factor 2-alpha kinase 1, sequence (Q9BQI3 whole entry): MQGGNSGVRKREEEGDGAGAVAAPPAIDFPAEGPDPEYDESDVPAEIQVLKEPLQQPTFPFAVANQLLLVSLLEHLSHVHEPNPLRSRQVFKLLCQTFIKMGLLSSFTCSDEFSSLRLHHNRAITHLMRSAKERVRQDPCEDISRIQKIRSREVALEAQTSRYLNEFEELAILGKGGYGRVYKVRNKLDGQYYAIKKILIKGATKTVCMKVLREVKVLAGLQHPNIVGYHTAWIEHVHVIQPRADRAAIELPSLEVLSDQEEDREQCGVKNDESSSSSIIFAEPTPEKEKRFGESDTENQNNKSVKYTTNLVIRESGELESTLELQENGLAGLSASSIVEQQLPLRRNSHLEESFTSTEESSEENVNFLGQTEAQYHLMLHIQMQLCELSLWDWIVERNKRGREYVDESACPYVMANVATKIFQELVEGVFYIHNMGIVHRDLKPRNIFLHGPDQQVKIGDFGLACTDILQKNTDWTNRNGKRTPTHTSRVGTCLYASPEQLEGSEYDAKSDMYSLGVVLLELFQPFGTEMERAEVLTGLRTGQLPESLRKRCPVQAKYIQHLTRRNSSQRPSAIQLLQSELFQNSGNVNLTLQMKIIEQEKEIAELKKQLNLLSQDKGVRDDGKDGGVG
Tyrosine-protein kinase Fer, sequence (P16591 whole entry): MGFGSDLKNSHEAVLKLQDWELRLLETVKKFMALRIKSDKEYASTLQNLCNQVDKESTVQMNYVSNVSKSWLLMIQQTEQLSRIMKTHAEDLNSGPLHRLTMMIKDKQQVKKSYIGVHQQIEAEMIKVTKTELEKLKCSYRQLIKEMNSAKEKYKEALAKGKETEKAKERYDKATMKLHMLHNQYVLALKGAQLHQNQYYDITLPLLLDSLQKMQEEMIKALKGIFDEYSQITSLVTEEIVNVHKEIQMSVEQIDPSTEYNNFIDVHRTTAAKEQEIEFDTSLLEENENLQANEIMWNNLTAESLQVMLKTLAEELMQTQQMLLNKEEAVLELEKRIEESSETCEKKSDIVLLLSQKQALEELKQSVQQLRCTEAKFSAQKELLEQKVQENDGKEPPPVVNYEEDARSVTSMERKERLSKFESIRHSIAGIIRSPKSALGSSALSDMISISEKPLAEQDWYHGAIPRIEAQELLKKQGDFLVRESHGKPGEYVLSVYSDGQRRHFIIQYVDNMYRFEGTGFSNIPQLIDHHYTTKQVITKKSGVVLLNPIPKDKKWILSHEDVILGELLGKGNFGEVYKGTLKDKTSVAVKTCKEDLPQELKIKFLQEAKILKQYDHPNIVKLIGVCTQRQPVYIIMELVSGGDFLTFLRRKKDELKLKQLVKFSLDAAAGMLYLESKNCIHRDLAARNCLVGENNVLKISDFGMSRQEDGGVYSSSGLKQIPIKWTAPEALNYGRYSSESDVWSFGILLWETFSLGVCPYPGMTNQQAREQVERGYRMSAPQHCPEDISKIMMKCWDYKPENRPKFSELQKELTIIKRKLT

For `CC(C)(C)NS(=O)(=O)c1cncc(-c2ccn3nc(N)nc3c2)c1`, the IC50 [1] was > 10 µM, the IC50 [2] was > 10 µM and the IC50 [3] was > 10 µM. The IC50 [4] was > 10 µM, the IC50 [5] was > 10 µM and the IC50 [6] was > 10 µM. The IC50 [7] was > 10 µM, the IC50 [8] was > 10 µM and the IC50 [9] was > 10 µM. The IC50 [10] was > 10 µM, the IC50 [11] was > 10 µM and the IC50 [12] was > 10 µM. For the same molecule, the IC50 [13] was > 10 µM, the IC50 [14] was > 10 µM and the IC50 [15] was > 10 µM. For the same molecule, the IC50 [16] was > 10 µM, the IC50 [17] was > 5.89 µM and the IC50 [18] was 1.07 µM. The IC50 [19] was > 10 µM, the IC50 [20] was > 10 µM and the IC50 [21] was > 10 µM. The IC50 [22] was > 10 µM, the IC50 [23] was > 10 µM and the IC50 [24] was > 10 µM. The IC50 [25] was > 10 µM, the IC50 [26] was > 10 µM and the IC50 [27] was > 10 µM. For the same molecule, the IC50 [28] was > 10 µM, the IC50 [29] was 0.0126 µM and the half-life [30] was 1.2 h. The Cmax [31] was 5.9 µM, the bioavailability [32] was 88% and the “inhibition (INH)” value [33] was “Active”. The Activity [34] was 42%, the Activity [35] was 94% and the IC50 [36] was > 10 µM. The IC50 [37] was > 10 µM and the IC50 [38] was > 10 µM.
